Consider nine molecules from patent US20120295838A1, “Selective poly-substituted glycine antibiotics and related compositions” (priority 2008, published 2012).

Numbered stars: 1 amine (or outer) side, 2 acyl side, 3 side chain; on linkers, the order of the positions; unused ones are H or OH. Square brackets hold non-standard residues; d marks the D form. Peptide text beside a SMILES is read from it. X1 = CC(C)[C@H](C)N(CC(=O)[*:2])[*:1]; Nspe = C[C@H](NCC(=O)O)c1ccccc1; Nlys = NCCCCNCC(=O)O

Data set [1] has as its system E. coli ATCC 35218. The data set is classed as cell-based. Particulars: ATCC 35218. The procedure: Whereas the preceding generation of molecules was designed to elucidate structure function relationships of specific molecular parameters (chirality, length, hydrophobicity, etc.), another generation compounds were designed explicitly to explore effects on selectivity. Antimicrobial activity of these compounds was tested against bacterial strains E. coli (ATTC 35218) and B. subtilis (ATTC 6633) in cation-adjusted MHB using the microdilution protocols previously described. The sequences, antimicrobial activities, hemolytic activities, and metabolic inhibitory concentrations against NIH 3T3 mouse fibroblast cells are summarized in Table 3 and the rationale of their design is described below.
Screening antibacterial assays. MICs were determined in 96-well microtiter plates in accordance with CLSI M7-A6 protocols. Peptoid solutions with 50 μL total volume were prepared using 2:1 serial dilutions. 50 i—tL of bacteria inoculum (1×10^6 CFU/mL) prepared in cation-adjusted Mueller-Hinton broth (CAMHB) was added to test wells. Control wells contained 100 μL MHB (no growth) or 50 μL inoculums with 50 μL MHB with no peptoid. […] Reported values were reproducible over three experiments, each containing two parallel trials.
Antibacterial Assays for Compositions. MICs were determined according to CLSI M7-A6 protocols in a 96-well microtiter plate. In test wells, 50 μL bacterial inoculum (1×10^6 CFU/ml) in cation-adjusted Mueller-Hinton broth (CAMHB) was added to 50 μL peptoid solution in CAMHB (prepared by 1:2 serial dilutions). Positive controls contained 50 μL inoculum and 50 μL CAMHB without peptoid. […] MIC values reported were reproducible between three independent experimental replicates, each consisting of two parallel trials.

The nature of data set [2]: MTS assay, NIH 3T3 cells. Format: cell-based, mouse. Conditions: mouse, NIH 3T3 fibroblast cells. The procedure: The potencies of all compounds were determined against representative Gram-negative (E. coli ATCC 35218) and Gram-positive (B. subtilis ATCC 6633) biosafety level 1 (BSL1) organisms. In addition to hemolytic activity, the conventional measure of toxicity to mammalian cells, the effect of each ampetoid on NIH 3T3 mouse fibroblast cells was determined using the MTS tetrazolium salt-based colorimetric assay. While hemolysis measures the degree to which erythrocytes are lysed, the MTS assay indirectly quantifies the extent to which cellular metabolic activity is inhibited.
MTS assays. NIH/3T3 cells (ATCC Corporation) cultured at 37° C. and 5% CO2 in complete Dulbecco's modified eagle's media (CDMEM) supplemented with 1% sodium pyruvate, 1% penicillin-streptomycin, 1.5 g/L NaHCO3, and 10% fetal bovine serum. Cells were seeded at a density of 5,000 cells per well for NIH/3T3 cells in 96-well plates (100 μl total volume). A peptoid solution plate (100 μL total volume per well) was prepared by serial dilution of aqueous peptoid stock solution in Hank's balanced salt solution (HBSS) media. The day-old cell monolayers were washed with HBSS and media was replaced with 100 μL HBSS. The contents of the peptoid solution plate were transferred onto corresponding wells of the cell monolayer plate, and 40 μL MTS reagent (Promega, Inc.) was added to each well. After incubating for 3 hours at 37° C., absorbance at 490 nm was determined. […] The average of six replicates is reported.
In general terms: Tetrazolium dyes change colour on reduction, which living cells bring about.

For data set [3], the system named is human erythrocytes. As to the kind of experiment: Hemolysis assay. Format: cell-based. The procedure:
(§1) Hemolysis assays. Erythrocytes were isolated from freshly drawn, heparanized human blood and resuspended to 20 vol % in PBS (pH 7.4). In a 96-well microtiter plate, 100 μL erythrocyte suspension was added to 100 uL peptoid solution in PBS (prepared by 1:2 serial dilutions), or 100 μL PBS in the case of negative controls. 100% hemolysis wells contained 100 μL, blood cell suspension with 100 μL 0.2 vol % Triton X-100. The plate was incubated for 1 h at 37° C., then each well was diluted with 1504 PBS. The plate was then centrifuged at 1200 g for 15 min, 100 μL of the supernatant from each well transferred to a fresh microtiter plate, and A350 measured.
Hemolysis assays. Erythrocytes were isolated from freshly drawn, heparanized human blood and resuspended in PBS (pH 7.4) to make a 20% volume suspension. Peptoid solutions were prepared by serial dilution (2:1) in a 96-well microtiter plate. For test wells, 100 μLL of erythrocyte suspension was added to 100 μL of peptoid solution in PBS; PBS without peptoid was used as the negative control and 0.2 vol % Triton X-100 as the positive control that indicates 100% hemolysis. After 1 hour incubation at 37° C., each well was diluted with 150 μL PBS. Plates were then centrifuged at 1,200×g for 15 minutes to pellet the cells. 30 μL of the supernatant from each well were transferred to the corresponding well of a second 96-well plate that contains 70 μL PBS.
as §1, with “assays for Compositions.” for “assays.”, “100” for “100 uL”, “μL” for “μL,”, “150 μL” for “1504”, “1200g” for “1200 g”

As to `CC(C)[C@H](C)N(CC(=O)N(CCCCN)CC(=O)N(CC(=O)N(CC(=O)N(CCCCN)CC(=O)N(CC(=O)N(CC(=O)N(CCCCN)CC(=O)N(CC(=O)N(CC(N)=O)[C@@H](C)c1ccccc1)[C@@H](C)c1ccccc1)[C@@H](C)C(C)C)[C@@H](C)C(C)C)[C@@H](C)c1ccccc1)[C@@H](C)c1ccccc1)C(=O)CN(C(=O)CNCCCCN)[C@@H](C)C(C)C` [1-Nsdp2,3,8,9, H-(Nlys-Nsdp-Nsdp-Nlys-Nspe-Nspe)2-NH2] (H-[Nlys][X1][X1][Nlys][Nspe][Nspe][Nlys][X1][X1][Nlys][Nspe][Nspe]-NH2), the “E. coli MIC” value in data set [1] is 12.5 µM. The midpoint of cytotoxicity in data set [2], the CC50 at 3 h, lay at 19 µM.

For the molecule `C[C@@H](c1ccccc1)N(CC(N)=O)C(=O)CN(C(=O)CN(CCCCN)C(=O)[C@@H]1CCCN1C(=O)CN(C(=O)CN(CCCCN)C(=O)CN(C(=O)CN(C(=O)CN(CCCCN)C(=O)[C@@H]1CCCN1C(=O)CN(C(=O)CNCCCCN)[C@@H](C)c1ccccc1)[C@@H](C)c1ccccc1)[C@@H](C)c1ccccc1)[C@@H](C)c1ccccc1)[C@@H](C)c1ccccc1` [1-Pro3,9, H-(Nlys-Nspe-L-Pro-Nlys-Nspe-Nspe)2-NH2] (H-[Nlys][Nspe]P[Nlys][Nspe][Nspe][Nlys][Nspe]P[Nlys][Nspe][Nspe]-NH2), the “E. coli MIC” value in data set [1] came out at 50 µM. Besides, the CC50 (usually the concentration that lowers cell viability or growth by half) at 3 h in data set [2] is 71 µM.

As for `C[C@H](NCC(=O)N(CCCCN)CC(=O)N(CC(=O)N(CCCCN)CC(=O)N(CCCCN)CC(=O)N(CC(=O)N(CC(=O)N(CCCCN)CC(=O)N(CC(=O)N(CCCCN)CC(=O)N(CCCCN)CC(=O)N(CC(N)=O)[C@@H](C)c1ccccc1)[C@@H](C)c1ccccc1)[C@@H](C)c1ccccc1)[C@@H](C)c1ccccc1)[C@@H](C)c1ccccc1)c1ccccc1` [1B12 mer-Nlys4,10, H-(Nspe-Nlys-Nspe-Nlys-Nlys-Nspe)2-NH2] (H-[Nspe][Nlys][Nspe][Nlys][Nlys][Nspe][Nspe][Nlys][Nspe][Nlys][Nlys][Nspe]-NH2), the “E. coli MIC” value in data set [1] is 50 µM. In addition, in data set [2], the CC50 at 3 h was found to be 83 µM.

In the case of `C[C@H](NCC(=O)N(CCCCN)CC(=O)N(CC(=O)N(CCCCN)CC(=O)N(CCCCN)CC(=O)N(CCCCN)CC(=O)N(CC(=O)N(CCCCN)CC(=O)N(CC(=O)N(CCCCN)CC(=O)N(CCCCN)CC(=O)N(CC(=O)N(CC(=O)N(CCCCN)CC(=O)N(CC(N)=O)[C@@H](C)c1ccccc1)[C@@H](C)c1ccccc1)[C@@H](C)c1ccccc1)[C@@H](C)c1ccccc1)[C@@H](C)c1ccccc1)[C@@H](C)c1ccccc1)c1ccccc1` [1B15 mer-Nlys4,6,10, H-Nspe-Nlys-Nspe-Nlys-Nlys-Nlys-Nspe-Nlys-Nspe-Nlys-Nlys-Nspe-Nspe-Nlys-Nspe-NH2] (H-[Nspe][Nlys][Nspe][Nlys][Nlys][Nlys][Nspe][Nlys][Nspe][Nlys][Nlys][Nspe][Nspe][Nlys][Nspe]-NH2), in data set [1], the “E. coli MIC” value was over 100 µM. Moreover, in data set [2], the CC50 at 3 h was 40 µM.

Take `C[C@H](NCC(=O)N(CCCCN)CC(=O)N(CC(=O)N(CCCCN)CC(=O)N(CCCCN)CC(=O)N(CC(=O)N(CC(=O)N(CCCCN)CC(=O)N(CC(=O)N(CCCCN)CC(=O)N(CCCCN)CC(=O)N(CC(=O)N(CC(=O)N(CCCCN)CC(=O)N(CC(N)=O)[C@@H](C)c1ccccc1)[C@@H](C)c1ccccc1)[C@@H](C)c1ccccc1)[C@@H](C)c1ccccc1)[C@@H](C)c1ccccc1)[C@@H](C)c1ccccc1)[C@@H](C)c1ccccc1)c1ccccc1` [1B15 mer-Nlys4,10, H-(Nspe-Nlys-Nspe-Nlys-Nlys-Nspe)2-Nspe-Nlys-Nspe-NH2] (H-[Nspe][Nlys][Nspe][Nlys][Nlys][Nspe][Nspe][Nlys][Nspe][Nlys][Nlys][Nspe][Nspe][Nlys][Nspe]-NH2): the “E. coli MIC” value in data set [1] is 50 µM. Half-maximal cytotoxicity in data set [2] (CC50 at 3 h) was put at 16 µM.

For `C[C@H](NCC(=O)N(CCCCN)CC(=O)N(CC(=O)N(CC(=O)N(CCCCN)CC(=O)N(CC(=O)N(CC(=O)N(CCCCN)CC(=O)N(CC(=O)N(CC(=O)N(CCCCN)CC(=O)N(CC(N)=O)[C@@H](C)c1ccccc1)[C@@H](C)c1ccccc1)[C@@H](C)c1ccccc1)[C@@H](C)c1ccccc1)[C@@H](C)c1ccccc1)[C@@H](C)c1ccccc1)[C@@H](C)c1ccccc1)c1ccccc1` [1B, H-(Nspe-Nlys-Nspe)4-NH2] (H-[Nspe][Nlys][Nspe][Nspe][Nlys][Nspe][Nspe][Nlys][Nspe][Nspe][Nlys][Nspe]-NH2), in data set [3], the HD10 amounted to 55 µM. In addition, the “E. coli MIC” value in data set [1] stood at 6.3 µM. The molecule also had a CC50 at 3 h in data set [2] of 4.9 µM.

In data set [3], `C[C@H](NCC(=O)N(CC(=O)N(CCCCN)CC(=O)N(CC(=O)N(CC(=O)N(CCCCN)CC(=O)N(CC(=O)N(CC(=O)N(CCCCN)CC(=O)N(CC(=O)N(CC(=O)N(CCCCN)CC(N)=O)[C@@H](C)c1ccccc1)[C@@H](C)c1ccccc1)[C@@H](C)c1ccccc1)[C@@H](C)c1ccccc1)[C@@H](C)c1ccccc1)[C@@H](C)c1ccccc1)[C@@H](C)c1ccccc1)c1ccccc1` [1C, H-(Nspe-Nspe-Nlys)4-NH2] (H-[Nspe][Nspe][Nlys][Nspe][Nspe][Nlys][Nspe][Nspe][Nlys][Nspe][Nspe][Nlys]-NH2) registered an HD10 of 25 µM. Moreover, the “E. coli MIC” value in data set [1] turned out to be 6.3 µM. The molecule also returned a CC50 at 3 h in data set [2] of 5.6 µM.

As for `C[C@@H](c1ccccc1)N(CC(N)=O)C(=O)CN(CCCCN)C(=O)CN(C(=O)CN(C(=O)CN(CCCCN)C(=O)CN(C(=O)CN(C(=O)CN(CCCCN)C(=O)CN(C(=O)CN(C(=O)CNCCCCN)[C@@H](C)c1ccccc1)[C@@H](C)c1ccccc1)[C@@H](C)c1ccccc1)[C@@H](C)c1ccccc1)[C@@H](C)c1ccccc1)[C@@H](C)c1ccccc1` [111 mer, H-(Nlys-Nspe-Nspe)3-Nlys-Nspe-NH2] (H-[Nlys][Nspe][Nspe][Nlys][Nspe][Nspe][Nlys][Nspe][Nspe][Nlys][Nspe]-NH2), the “E. coli MIC” value in data set [1] came out at 6.3 µM. This molecule gave a CC50 at 3 h in data set [2] of 11 µM.

Consider `C[C@@H](c1ccccc1)N(CC(=O)N(CCCCN)CC(=O)N(CC(=O)N(CC(=O)N(CCCCN)CC(=O)N(CC(=O)N(CC(=O)N(CCCCN)CC(=O)N(CC(=O)N(CC(=O)N(CCCCN)CC(N)=O)[C@@H](C)c1ccccc1)[C@@H](C)c1ccccc1)[C@@H](C)c1ccccc1)[C@@H](C)c1ccccc1)[C@@H](C)c1ccccc1)[C@@H](C)c1ccccc1)C(=O)CN(C(=O)CNCCCCN)[C@@H](C)c1ccccc1` [113 mer, H-(Nlys-Nspe-Nspe)4-Nlys-NH2] (H-[Nlys][Nspe][Nspe][Nlys][Nspe][Nspe][Nlys][Nspe][Nspe][Nlys][Nspe][Nspe][Nlys]-NH2), for which the “E. coli MIC” value in data set [1] came out at 3.1 µM. The CC50 at 3 h in data set [2] stood at 5.6 µM.
